From US5130303A, “Drug effect-enhancing agent for antitumor drug” (Nissan Chemical Industries Ltd., priority 1988, dated 1992)
Values after ≈ are worked out from the molar mass of the structure shown.

Columns and labels:
cancer cells = details: literature; cited from earlier work
KB-C2 = assay: in vitro chemosensitivity test, MTT colorimetric assay with vincristine (Test Example 1, Table 1); assay type: cell-based; details: Homo sapiens, KB-C2, 96 h, read-out: IC50 of vincristine without a sample
Method: MTT colorimetric assay performed in a 96-well plate was used for an in vitro chemosensitivity test. The assay is dependent on the reduction of MTT by the mitochondrial dehydrogenase of viable cells to a blue formazan product which can be measured spectrophotometrically. Equal numbers of cells (2,000 for KB-3-1 and 5,000 for KB-C2) were inoculated into each well with […] of culture medium. After overnight incubation (37° C., 5% CO2), 20 μl of vincristine solution and 0.5 μl of sample solution were added and incubated for 4 days. Then, 50 μl of MTT (1.1 mg/ml PBS) was added to each well and incubated for further 4 hours. The resulting formazan was dissolved with 100 μl of DMSO after aspiration of the culture medium. Plates were placed on a plate shaker for 5 minutes and read immediately at 570 nm. IC50 (mg/ml) with a tested sample 10 μM is given in Table 1; and IC50 of vincristine without a sample was 5,000 ng/ml.
MTT: 3-(4,5-dimethylthiazol-2-yl)-2,5-diphenyltetrazolium bromide
MEM: minimum essential medium

| Compound | effect on multidrug resistance / antitumor drug effects (cancer cells) | IC50 (KB-C2) [mg/L] |
| --- | --- | --- |
| COc1ccc(CCN(C)CCCC(C#N)(c2ccc(OC)c(OC)c2)C(C)C)cc1OC (stereo not shown) [Verapamil] | overcomes the multidrug resistance against antitumor drugs |  |
| COc1ccc([C@@H]2Sc3ccccc3N(CCN(C)C)C(=O)[C@@H]2OC(C)=O)cc1 [diltiazem] | enhances the drug effects of vincristine (VCR) |  |
| COC(=O)C1=C(C)NC(C)=C(C(=O)OCCN(C)Cc2ccccc2)C1c1cccc([N+](=O)[O-])c1 (stereo not shown) [nicardipin] | enhances the antitumor activities of vindecine sulfate |  |
| CC[C@]1(O)C[C@H]2CN(CCc3c([nH]c4ccccc34)[C@@](C(=O)OC)(c3cc4c(cc3OC)N(C=O)[C@H]3[C@@](O)(C(=O)OC)[C@H](OC(C)=O)[C@]5(CC)C=CCN6CC[C@]43[C@@H]65)C2)C1 [vincristine] |  | 5 (≈ 6.06 µM) |
